Measurements as given in patent US6476012B2, “Estradiol-16α-carboxylic acid esters as locally active estrogens” (Yale University, priority 2001, dated 2002).
Several values for one entry are separate records, joined by “and”; a condition that tells them apart may be missing. Equal values may be shown once. Where a name gives a salt, the structure may show the parent alone.

What was measured:
[1] = tested on: esterase(s) in rat hepatic microsomes; experiment: Esterase assay with rat hepatic microsomes; type: in vitro ADME; conditions: rat hepatic microsomes, E16-1,2 = 100; ± S.D.
Procedure: Esterase. Esterase activity was measured in rat hepatic microsomes essentially using the conditions described.^39 Liver obtained from Sprague-Dawley rats was washed with phosphate buffered saline and homogenized in 3 volumes of cold 0.25 M sucrose and centrifuged at 700 g for 10 min and then at 10,000 g for 20 min. The resulting supernatant was centrifuged at 105,000 g for 60 min. The pellet was suspended in 0.1 M phosphate buffer pH 7.4 and washed by centrifugation at 105,000 g for 60 min. The washed pellet was suspended in 0.1 M Tris-HCl pH 8.0 at a concentration of ˜13 mg protein/ml and frozen at −80° C. For assay, the pellets were thawed and diluted with the same buffer. The incubation mixture consisted of the microsomal enzyme preparation, 0.28 mg protein/ml, E2-16α-alkyl esters, 50 μM, added in 10 μL of ethanol, all in a final volume of 1 mL of Tris buffer pH 8.0. Since the rates of reaction are widely different for the various esters, the incubation times were varied accordingly to obtain linear kinetics. At several appropriate time points, 100 μL aliquots were withdrawn and the reaction was quenched with 33 μL CH3CN, followed by a 33 μL of a solution of THF containing 1 […] of the internal standard, 6-ketoestradiol. The quenched aliquot was centrifuged for several minutes on bench-top centrifuge and 80 μl of the supernatant was analyzed for the esterase-hydrolysis product (the corresponding E2-16α-carboxylic acid: E16-1,0 8; E16-2,0 23; E16-3,0 35) by reversed phase HPLC with system H-10 for E2-16-1 and E2-16-2 esters, and with system H-15 for E2-16-3 esters. The E2-16α-carboxyl products, (Rt for E16-1,0 8=7 min and for E16-2,0 23=9 min, E16-3,0 35=6.5 min) and the internal standard, 6-ketoestradiol (Rt 7.5 min in system H-10, and 5 min in system H-15) were quantified at 280 nm on the HPLC UV detector. The UV absorbance was converted to moles of product by comparison to standard curves and corrected for recovery of the internal standard, 6-ketoestradiol. The velocity of the reaction for each ester, in nmol product/min/ml/ was then normalized to the ester, E16-1,2 10 and is shown in Table 1 as relative hydrolytic activity (RHA). The enzymatic velocity for the hydrolysis of E16-1,2 10 was 0.9±0.2 (S.D.) nmol product/min/ml over the various experiments. Since all of the esters could not be tested simultaneously, in each case we compared the rate of hydrolysis of the test compound to that of E16-1,2 10 run concurrently. All compounds were tested in triplicate in 3 separate experiments.

[2] = biological target: T1, ER in rat uterine cytosol (ERα) (Rattus norvegicus, UniProt P06211); experiment: Competitive binding to the ER in rat uterine cytosol (RBA vs [3H]E2); conditions: for ER RBA (relative binding affinity): rat uterine estrogen receptor assay, E2 = 100, ± S.D.; for RBA / binding to the ER: uterine cytosol (ERα); for RBA: relative to E2
T1 construct: The uterus was removed and homogenized in ice-cold TEGDMo buffer; from tissue; host or cells: uterine cytosol of castrated female Sprague Dawley rats
T1 sequence (P06211 1-600): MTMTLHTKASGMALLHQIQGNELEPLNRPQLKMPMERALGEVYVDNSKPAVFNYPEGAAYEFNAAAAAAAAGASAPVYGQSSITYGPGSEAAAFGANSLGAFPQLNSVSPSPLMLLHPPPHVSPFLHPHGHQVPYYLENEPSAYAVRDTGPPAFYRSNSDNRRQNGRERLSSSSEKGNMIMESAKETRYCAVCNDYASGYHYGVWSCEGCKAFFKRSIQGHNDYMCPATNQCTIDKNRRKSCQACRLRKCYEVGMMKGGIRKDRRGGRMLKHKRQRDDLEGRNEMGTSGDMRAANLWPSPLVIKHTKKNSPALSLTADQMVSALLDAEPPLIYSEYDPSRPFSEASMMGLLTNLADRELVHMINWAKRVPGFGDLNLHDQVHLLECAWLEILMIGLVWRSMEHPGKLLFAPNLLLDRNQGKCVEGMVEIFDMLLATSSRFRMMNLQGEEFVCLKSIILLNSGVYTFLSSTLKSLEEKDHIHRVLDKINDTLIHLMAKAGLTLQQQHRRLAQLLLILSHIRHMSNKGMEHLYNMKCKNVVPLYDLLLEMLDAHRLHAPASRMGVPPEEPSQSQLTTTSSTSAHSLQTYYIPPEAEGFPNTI
Procedure: Competitive Binding to the Estrogen Receptor ERα and ERβ. […] The ER in uterine cytosol is ERα the classical form of the ER.^38 Female Sprague Dawley rats were castrated and sacrificed 24 h later. The uterus was removed and homogenized in ice-cold TEGDMo buffer (10 mM Tris, 1.5 mM Na2-EDTA, 10% (v/v) glycerol, 1.0 mM dithiothreitol, 25 mM sodium molybdate, pH 7.4 at 4° C.). and centrifuged at 105,000 g for 45 min at 4° C. The supernatant (cytosol) was frozen on dry ice and stored at −80° C. until assay. […] Incubations were carried out on ice overnight and bound radioactivity was separated from free by adsorption with dextran coated charcoal and quantified by counting.^26 Relative Binding Affinity (RBA) was determined by analysis of the displacement curves by the curve-fitting program Prism (Graph-Pad Software inc., San Diego, Calif.). The results shown in Table 1. below, are from at least 3 separate experiments performed in duplicate.

[3] = tested on: alkaline phosphatase (AlkP) induction in Ishikawa cells; experiment: Estrogenic potency in Ishikawa cells: induction of AlkP; type: cell-based, human; conditions: for Ishikawa Cell AlkP RSA (relative stimulatory activity): induction of AlkP, E2 = 100, ± S.D.
Procedure: Estrogenic Potency in Ishikawa Cells. The estrogenic potency of the E2-analogs was determined in a estrogen bioassay, the induction of AlkP in human endometrial adenocarcinoma cells (Ishikawa) grown in 96-well microtiter plates as we have previously described.^28 In short, the cells are grown in phenol red free medium with estrogen depleted (charcoal stripped) bovine serum in the presence or absence of varying amounts of the steroids. […] After 3 days, the cells are washed, frozen and thawed, and then incubated with 5 mM p-nitrophenyl phosphate, a chromogenic substrate for the AlkP enzyme, at pH 9.8. To ensure linear enzymatic analysis, the plates are monitored kinetically for the for the production of p-nitrophenol at 405 nm. The relative stimulatory activity is determined by analysis of the curve fitting program Prism. Each compound was analyzed in at least 3 separate experiments performed in duplicate.

human ERβ and ERα = experiment: Competitive binding to human ERβ and ERα expressed in Escherichia coli lysates (ratio of RBAs); conditions: RBAs (E2 = 100) in E. coli lysates expressing human ERβ and ERα separately

Row | Esterase RHA (relative hydrolytic activity) [1] | ER RBA (relative binding affinity) [2] | RBA [2] | Structure (SMILES) | Ishikawa Cell AlkP RSA (relative stimulatory activity) [3] | binding to the ER [2] | RSA (estrogenic potency compared to E2) ([3]; Ishikawa AlkP) | ERα/ERβ (ratio of the RBAs) (human ERβ and ERα)
1 | 700 ± 120 | 5 ± 1 | 5% | CCOC(=O)C[C@@H]1C[C@H]2[C@@H]3CCc4cc(O)ccc4[C@H]3CC[C@]2(C)[C@H]1O [E16-2,2, Ethyl (3,17β-dihydroxyestra-1,3,5(10)-trien-16α-yl) acetate] | 0.3 ± 0.1 | – | – | –
2 | – | 0.1 ± 0.1 | – | C[C@]12CC[C@@H]3c4ccc(O)cc4CC[C@H]3[C@@H]1C[C@@H](CCC(=O)O)[C@@H]2O [E16-3,0, 3-(3,17β-dihydroxyestra-1,3,5(10)-trien-16α-yl)propanioc acid] | 0 | None of the parent carboxylic acid analogs, E16-1,0, E16-2,0 and E16-3,0 showed significant binding | – | –
3 | 8,200 ± 1,800 | 7 ± 1 | 7% | C[C@]12CC[C@@H]3c4ccc(O)cc4CC[C@H]3[C@@H]1C[C@@H](C(=O)OCC(F)(F)F)[C@@H]2O [E16-1,2F3, 2′,2′,2′-Trifluoroethyl (3,17β-dihydroxyestra-1,3,5(10)-trien-16α-yl) formate] | 3 ± 1 | – | – | –
4 | 350 ± 50 | 28 ± 17 | 28% | CCCCOC(=O)[C@@H]1C[C@H]2[C@@H]3CCc4cc(O)ccc4[C@H]3CC[C@]2(C)[C@H]1O [E16-1,4, n-Butyl (3,17β-dihydroxyestra-1,3,5(10)-trien-16α-yl) formate] | 1 ± 0 | – | – | –
5 | – | – | – | C[C@]12CC[C@@H]3c4ccc(O)cc4CC[C@H]3[C@@H]1CCC2=O [Compound E1, estrone, reference compound] | 7 ± 2 | – | 7% | –
6 | 340 ± 30 | 5 ± 2 | 5% | COC(=O)C[C@@H]1C[C@H]2[C@@H]3CCc4cc(O)ccc4[C@H]3CC[C@]2(C)[C@H]1O [E16-2,1, Methyl 3,17β-dihydroxyestra-1,3,5(10)-trien-16α-yl acetate] | 0.5 ± 0.1 | – | – | –
7 | 50 and 50 ± 5 | 14 ± 3 | 7% | CC(C)(C)COC(=O)[C@@H]1C[C@H]2[C@@H]3CCc4cc(O)ccc4[C@H]3CC[C@]2(C)[C@H]1O [E16-1,5neo] | 1 ± 0.6 | – | – | –
8 | 230 and 230 ± 50 | 34 ± 9 | – | CCCOC(=O)[C@@H]1C[C@H]2[C@@H]3CCc4cc(O)ccc4[C@H]3CC[C@]2(C)[C@H]1O [E16-1,3, Propyl (3,17β-dihydroxyestra-1,3,5(10)-trien-16α-yl) formate] | 2 ± 0 | – | – | –
9 | 140 and 140 ± 10 | 7 ± 4 | 7% | CC(C)OC(=O)[C@@H]1C[C@H]2[C@@H]3CCc4cc(O)ccc4[C@H]3CC[C@]2(C)[C@H]1O [E16-1,3i, Isopropyl (3,17β-dihydroxyestra-1,3,5(10)-trien-16α-yl) formate] | 0.1 ± 0.06 | – | – | –
10 | 2,350 ± 275 | 10 ± 3 | 10% | C[C@]12CC[C@@H]3c4ccc(O)cc4CC[C@H]3[C@@H]1C[C@@H](C(=O)OCC(F)F)[C@@H]2O [E16-1,2F2, 2′,2′-Difluoroethyl (3,17β-dihydroxyestra-1,3,5(10)-trien-16α-yl) formate] | 4 ± 1 | – | – | 1,800

Row | Structure (SMILES) | Esterase RHA (relative hydrolytic activity) [1] | ER RBA (relative binding affinity) [2] | RBA [2] | Ishikawa Cell AlkP RSA (relative stimulatory activity) [3] | binding to the ER [2] | RSA (estrogenic potency compared to E2) ([3]; Ishikawa AlkP) | ERα/ERβ (ratio of the RBAs) (human ERβ and ERα)
11 | C[C@]12CC[C@@H]3c4ccc(O)cc4CC[C@H]3[C@@H]1C[C@@H](CC(=O)O)[C@@H]2O [E16-2,0, 3,17β-Dihydroxyestra-1,3,5(10)-trien-16α-yl acetic acid] | – | 0 | – | 0 | None of the parent carboxylic acid analogs, E16-1,0, E16-2,0 and E16-3,0 showed significant binding | – | –
12 | COC(=O)CC[C@@H]1C[C@H]2[C@@H]3CCc4cc(O)ccc4[C@H]3CC[C@]2(C)[C@H]1O [E16-3,1, Methyl 3-(3,17β-dihydroxyestra-1,3,5(10)-trien-16α-yl)propanoate] | 910 ± 100 | 1 ± 1 | 1% | 0 | – | – | –
13 | C[C@]12CC[C@@H]3c4ccc(O)cc4CC[C@H]3[C@@H]1C[C@@H](C(=O)O)[C@@H]2O [E16-1,0, 3,17β-dihydroxyestra-1,3,5(10)-trien-16α-carboxylic acid] | – | 0 | – | 0 | None of the parent carboxylic acid analogs, E16-1,0, E16-2,0 and E16-3,0 showed significant binding | – | –
